What all share (type): cell-based
Test [1] has as its system Wnt activity (Sp5-Luc reporter, SW480 colon carcinoma cells). Description: Screening assay for Wnt activity (Sp5-Luc reporter gene assay in SW480 cells). As to conditions: Homo sapiens; for EC50: Sp5-Luc reporter, SW480 cells, incubated overnight; for inhibition at 10 µM: SW480, read-out: percent inhibition at 10 μM. The text has this:
The screening assay for Wnt activity is described as follows. Reporter cell lines can be generated by stably transducing cancer cell lines (e.g., colon cancer) or primary cells (e.g., IEC-6 intestinal cells) with a lentiviral construct that includes a Wnt-responsive promoter driving expression of the firefly luciferase gene.
SW480 colon carcinoma cells were transduced with a lentiviral vector expressing luciferase with a human Sp5 promoter consisting of a sequence of eight TCF/LEF binding sites. SW480 cells stably expressing the Sp5-Luc reporter gene and a hygromycin resistance gene were selected by treatment with 150 μg/mL of hygromycin for 7 days. These stably transduced SW480 cells were expanded in cell culture and used for all further screening activities. […] For Sp5-Luc reporter gene assays, the cells were plated at 4,000 cells/well in 384-well plates with medium containing 1% fetal bovine serum and incubated overnight at 37° C. and 5% CO2. Following incubation, 20 μl of BrightGlo luminescence reagent (Promega) was added to each well of the 384-well assay plates. The plates were placed on an orbital shaker for 2 min and then luminescence was quantified using the Envision (Perkin Elmer) plate reader. Readings were normalized to DMSO only treated cells, and normalized activities were utilized for EC50 calculations using the dose-response log (inhibitor) vs. response-variable slope (four parameters) nonlinear regression feature available in GraphPad Prism 5.0 (or Dotmatics).

Test [2] has as its system SW480 colon cancer cells. Kind of test: Cell viability assay (CellTiter-Blue). The conditions noted are these: Homo sapiens; for EC50: 96 h, SW480 cell viability, four days, CellTiter-Blue; for inhibition at 10 µM: SW480, 96 h, read-out: percent inhibition at 10 μM. As for the experimental part:
Representative compounds were screened using the following assay procedure to assess the effect on cell viability as described below.
Approximately 2×10^3 SW480 colon cancer cells were seeded into each well and allowed to incubate in the presence or absence of compound for four days at 37° C./5% CO2. Eight replicates of DMSO-treated cells served as controls and cells treated with compound were performed in duplicate.
After incubation, 20 μL of CellTiter-Blue (Promega) was added to each well allowed to incubate for approximately 3 hours. This reagent was a buffered solution which contains resazurin, metabolically active cells were able to reduce rezarurin (blue) into resorufin (pink) which was highly fluorescent. This measured fluorescence was used as a readout for cell viability.
Background: Alamar Blue is a resazurin reagent that responds to reducing activity.

Test [3] has as its system primary human fibroblasts derived from IPF patients (LL29 cells) treated with TGF-β1. Kind of test: Inhibition of the fibrotic process (αSMA staining) in TGF-β1-treated fibroblasts. As to conditions: Fibroblast, 96 h; for EC50: % αSMA-positive LL29 cells, TGF-β1 20 ng/mL, 4 days; for inhibition at 10 µM: read-out: percent inhibition at 10 μM. As for the experimental part:
Representative compounds were screened using primary human fibroblasts (derived from IPF patients) treated with TGF-β1 to determine their ability to inhibit the fibrotic process.
LL29 cells are plated at 1,500 cells/well in 80 μL/well F12 medium supplemented with 1% Fetal Bovine Serum. […] Wells treated with TGF-P1 and containing DMSO were used as controls. […] Following incubation for 4 days, SYTOX green nucleic acid stain (Life Technologies [Thermo Fisher Scientific]) was added to the wells at a final concentration of 1 μM and incubated at room temperature for 30 min.

Test [4] has as its system primary human mesenchymal stem cells (hMSCs). Description: Induction of chondrogenesis in hMSCs (Rhodamine B / Nile Red nodule imaging). As to conditions: for Emax: maximum activity relative to TGF-β3 (10 ng/mL) positive control, read-out: Max. Activity as % TGF-β3 activity; for EC50: concentration required to induce 50% levels of chondrogenesis vs TGF-β3 positive control, read-out: Conc (nM) of 50% TGF-β3 activity. An excerpt: Representative compounds were screened using primary human mesenchymal stem cells (hMSCs) to determine their ability to induce chondrogenesis (process by which cartilage is developed).
Primary human mesenchymal stem cells (hMSCs) were purchased from Lonza (Walkersville, Md.) and expanded in Mesenchymal Stem Cell Growth Media (Lonza). Cells between passage 3 and 6 were used for the experiments.
Area of nodules in each well was normalized to the average of 3 DMSO treated wells on the same plate using Excel (Microsoft Inc.). The normalized averages (fold change over DMSO) of 2 or 3 replicate wells for each compound concentration were calculated. Due to solubility limitations of some of the compounds, curve fitting was incomplete leading to inaccurate EC50 determinations.
Using TGF-β3 as a positive control, the concentration of representative compounds required to induce 50% levels of chondrogenesis is reported. In addition, the maximum activity of each compound and the respective dose that each compound reached maximum chondrogenesis activity is reported.

Test [5] relates to IL-6 (THP-1 cells). Kind of test: IL-6 inhibition in LPS-stimulated THP-1 cells (HTRF). The conditions noted are these: Homo sapiens; for EC50: IL6 by HTRF, THP-1 cells, 500 ng/mL LPS, 22 hours; for inhibition at 10 µM: THP-1, read-out: percent inhibition at 10 M. As for the experimental part: THP-1 cells were cultured in basal media with 1% FBS for 24 hours before the start of the assay. […] THP-1 cells were plated at 5000 cells/well in the 384-well plates and incubated at 37° C. for 2 h. 500 ng/mL of LPS was added after 2 hours and cells were incubated for another 22 hours at 37° C. Plates were spun in a centrifuge for 1 minute at […] and a mixture of anti-IL6 XL665, and anti-IL6 Cryptate diluted in reconstitution buffer (Cisbio Inc.) was added to each well. Following incubation for 3 hrs at room temperature, Homogeneous Time-Resolved Fluorescence (HTRF) was measured using the Envision (Perkin Elmer) at 665 nm and […]. The ratio of fluorescence at 665 nm to 620 nm was used as a readout for IL6 quantification. All samples were processed in duplicate. Readings were normalized to DMSO treated cells and normalized activities were utilized for EC50 calculations using the dose-response log (inhibitor) vs. response-variable slope (four parameters) nonlinear regression feature available in GraphPad Prism 5.0 (or Dotmatics).

The values that follow come from US10463651B2, “3-(1H-pyrrolo[3,2-C]pyridin-2-YL)-1H-indazoles and therapeutic uses thereof” (Samumed, LLC, priority 2015, dated 2019).

One may read the inhibition as the change of the read-out against control, counted positive when it falls.

Turning to `Fc1cccc(-c2nccc3[nH]c(-c4n[nH]c5ccc(-c6cccnc6)cc45)cc23)c1` [Compound 4, 3-(4-(3-Fluorophenyl)-1H-pyrrolo[3,2-c]pyridin-2-yl)-5-(pyridin-3-yl)-1H-indazole], the EC50 is 140 nM in test [1], 453 nM in test [2], 44 nM in test [3] and 164 nM in test [5]. In addition, in test [4], the Emax stood at 32%.
`CN(C)Cc1cncc(-c2ccc3[nH]nc(-c4cc5c(-c6ccc(F)cc6)nccc5[nH]4)c3c2)c1` [Compound 41, 1-(5-(3-(4-(4-Fluorophenyl)-1H-pyrrolo[3,2-c]pyridin-2-yl)-1H-indazol-5-yl)pyridin-3-yl)-N,N-dimethylmethanamine]: the inhibition at 10 µM in test [1] is 55.7%. The EC50 is greater than 10000 nM in test [1], 2990 nM in test [2], 2650 nM in test [3] and 9400 nM in test [5]. Further, the Emax in test [4] is 46%.
Turning to `O=C(Nc1cncc(-c2ccc3[nH]nc(-c4cc5cnccc5[nH]4)c3c2)c1)C1CCC1` [Compound 273, N-(5-(3-(1H-Pyrrolo[3,2-c]pyridin-2-yl)-1H-indazol-5-yl)pyridin-3-yl)cyclobutanecarboxamide], the EC50 in test [1] was found to be 75 nM; in test [2] it was 441 nM; in test [3], 95 nM; in test [4], 10 nM; in test [5] it was 118 nM. The Emax in test [4] stood at 213%.
As to `CC(C)C(=O)Nc1cncc(-c2ccc3[nH]nc(-c4cc5cnccc5[nH]4)c3c2)c1` [Compound 261, N-(5-(3-(1H-Pyrrolo[3,2-c]pyridin-2-yl)-1H-indazol-5-yl)pyridin-3-yl)isobutyramide], the EC50 in test [1] came to 140 nM; in test [2], 333 nM; in test [3], 362 nM; in test [4], 2700 nM; in test [5], 343 nM. For the same molecule, the Emax in test [4] turned out to be 181%.
Take `Fc1ccccc1-c1nccc2[nH]c(-c3n[nH]c4ccc(-c5cncc(CN6CCC(F)(F)C6)c5)cc34)cc12` [Compound 82, 5-(5-((3,3-Difluoropyrrolidin-1-yl)methyl)pyridin-3-yl)-3-(4-(2-fluorophenyl)-1H-pyrrolo[3,2-c]pyridin-2-yl)-1H-indazole]: the EC50 in test [1] turned out to be 233 nM; in test [2], 821 nM; in test [3] it was 221 nM; in test [4], 2700 nM; in test [5], 181 nM. The Emax in test [4] was found to be 172%.
For `O=C(Nc1cncc(-c2ccc3[nH]nc(-c4cc5cnccc5[nH]4)c3c2)c1)C1CCCCC1` [Compound 275, N-(5-(3-(1H-Pyrrolo[3,2-c]pyridin-2-yl)-1H-indazol-5-yl)pyridin-3-yl)cyclohexanecarboxamide], the EC50 in test [1] came to 285 nM; in test [2], 255 nM; in test [3] it was 110 nM; in test [4] it was 30 nM; in test [5], 77 nM. Moreover, in test [4], the Emax is 155%.
In the case of `COc1cncc(-c2ccc3[nH]nc(-c4cc5c(-c6ccco6)nccc5[nH]4)c3c2)c1` [Compound 991, 3-(4-(Furan-2-yl)-1H-pyrrolo[3,2-c]pyridin-2-yl)-5-(5-methoxypyridin-3-yl)-1H-indazole], the EC50 in test [1] is 1010 nM; in test [2], 1500 nM; in test [5], 7620 nM. In test [4], the Emax is 36%.
With `CC(C)(C)CC(=O)Nc1cncc(-c2ccc3[nH]nc(-c4cc5c(-c6ccccc6F)nccc5[nH]4)c3c2)c1` [Compound 72, N-(5-(3-(4-(2-Fluorophenyl)-1H-pyrrolo[3,2-c]pyridin-2-yl)-1H-indazol-5-yl)pyridin-3-yl)-3,3-dimethylbutanamide], the EC50 is 445 nM in test [1], greater than 10000 nM in test [2], greater than 10000 nM in test [3] and 489 nM in test [5]. The inhibition at 10 µM in test [2] was 9.6%; in test [3], 0%.
For the molecule `CS(=O)(=O)NCc1cc(F)cc(-c2nccc3[nH]c(-c4n[nH]c5ccc(-c6cncc(NC(=O)C7CCC7)c6)cc45)cc23)c1` [Compound 497, N-(5-(3-(4-(3-Fluoro-5-(methylsulfonamidomethyl)phenyl)-1H-pyrrolo[3,2-c]pyridin-2-yl)-1H-indazol-5-yl)pyridin-3-yl)cyclobutanecarboxamide], the EC50 in test [1] is 188 nM; in test [2], 492 nM; in test [3] it was 599 nM; in test [5], 27 nM.
On the same counts, the results for `O=C(Cc1ccccc1)Nc1cncc(-c2ccc3[nH]nc(-c4cc5c(-c6cccc(F)c6)nccc5[nH]4)c3c2)c1` [Compound 10, N-(5-(3-(4-(3-Fluorophenyl)-1H-pyrrolo[3,2-c]pyridin-2-yl)-1H-indazol-5-yl)pyridin-3-yl)-2-phenylacetamide] are 875 nM, 1020 nM, 630 nM and 660 nM.
In the case of `Fc1cccc(-c2nccc3[nH]c(-c4n[nH]c5ccc(-c6ccncc6)cc45)cc23)c1` [Compound 18, 3-(4-(3-Fluorophenyl)-1H-pyrrolo[3,2-c]pyridin-2-yl)-5-(pyridin-4-yl)-1H-indazole], the results for the inhibition at 10 µM in test [1] and in test [5] were 58.3% and 8.4%, respectively. For the same molecule, the EC50 was greater than 10000 nM in test [1], 1860 nM in test [2], 4350 nM in test [3] and greater than 10000 nM in test [5].
Turning to `c1ccc(-c2ccc3[nH]nc(-c4cc5c(-c6cccs6)nccc5[nH]4)c3c2)nc1` [Compound 364, 5-(Pyridin-2-yl)-3-(4-(thiophen-2-yl)-1H-pyrrolo[3,2-c]pyridin-2-yl)-1H-indazole], the EC50 in test [1] is 2220 nM; in test [2], 1900 nM; in test [3], 1770 nM; in test [5], greater than 10000 nM. Further, the inhibition at 10 µM in test [5] stood at 44%.
As to `CN1CCN(c2nccc3[nH]c(-c4n[nH]c5ccc(-c6cncc(NC(=O)C7CCCC7)c6)cc45)cc23)CC1` [Compound 246, N-(5-(3-(4-(4-Methylpiperazin-1-yl)-1H-pyrrolo[3,2-c]pyridin-2-yl)-1H-indazol-5-yl)pyridin-3-yl)cyclopentanecarboxamide], the inhibition at 10 µM in test [1] turned out to be 17.1%; in test [2], 34.3%; in test [3] it was 0%. The EC50 in test [1] is greater than 10000 nM; in test [2], greater than 10000 nM; in test [3] it was greater than 10000 nM; in test [5], 9510 nM.
